Where two headings read alike, the source gives them in different places.
What was measured:
[1] = water solubility of amlexanox; format: physicochemical
From the text: (§1) The molecule contains a free carboxylate group, and the water solubility of amlexanox can be increased by raising the pH of the dissolution solution. However, caution is necessary using this approach as degradation of amlexanox may take place at high pH. […] Thus the formulation of a viscous, mucoadhesive solution of amlexanox which is also stable represented a major challenge.

[2] = stability of amlexanox in aqueous solution; format: physicochemical; conditions: under certain conditions, solution pH greater than about 8.0
From the text: as §1

[3] = system: passive cutaneous anaphylaxis mediated by IgE; conditions: rat, cited from earlier work
Arthus reaction = conditions: cited from earlier work
tuberculin reaction = conditions: intravenous, cited from earlier work
[4] = system: 2,4-dinitro-1 -fluorobenzene-induced contact sensitivity; conditions: intravenous, cited from earlier work
[5] = system: IgE-mediated bronchoconstriction; conditions: rats, cited from earlier work
[6] = system: IgE-mediated constriction; conditions: actively sensitized guinea pigs, cited from earlier work
[7] = system: IgG1-mediated bronchoconstriction; conditions: actively sensitized guinea pigs, cited from earlier work
bronchoconstriction = conditions: guinea pigs passively sensitized with rabbit IgG, intravenously; cited from earlier work
[8] = system: leukotriene D4-induced bronchoconstriction; conditions: guinea pigs, intravenous doses of 5 and 20 mg/kg; cited from earlier work
[9] = system: platelet activating factor-induced bronchoconstriction; conditions: guinea pigs, intravenous doses of 5 and 20 mg/kg; cited from earlier work
[10] = system: histamine-induced bronchoconstriction; conditions: cited from earlier work
[11] = system: acetylcholine-induced bronchoconstriction; conditions: text b108; cited from earlier work
mast cells = conditions: cited from earlier work
[12] = system: leukotriene D4 (LTD4) generation; conditions: mechanism of action; cited from earlier work
airway smooth muscle = conditions: mechanism of action; cited from earlier work
allergic reactions = conditions: variety of in vivo models; cited from earlier work
leukotrienes = conditions: in vitro; cited from earlier work
cyclo-oxygenase products = conditions: whole tissue studies; cited from earlier work
[13] = system: cyclic nucleotide phosphodiesterase; conditions: cited from earlier work
inflammation = conditions: in vivo; cited from earlier work

Compound: CC(C)c1ccc2oc3nc(N)c(C(=O)O)cc3c(=O)c2c1 [Amlexanox, 2-amino-7-(1 methylethyl)-5-oxo-5H[1]benzopyrano[2,3-b]pyridine-3-carboxylic acid]
- water solubility [1]: poorly water soluble
- degradation in aqueous solution [2]: degrade slowly
- ED50, inhibition of passive cutaneous anaphylaxis ([3]; intravenous): 0.032 mg/kg
- ED50, inhibition of passive cutaneous anaphylaxis ([3]; oral): 0.73 mg/kg
- inhibition of the Arthus reaction (Arthus reaction; intravenous doses of 5 and 20 mg/kg given immediately after antigen challenge): moderate activity
- inhibition of the Arthus reaction (Arthus reaction; oral doses of 50 and 10 mg/kg given 1 or 3 hours after antigen challenge): moderate activity
- inhibition of the tuberculin reaction (tuberculin reaction; 5 mg/kg): not
- inhibition of the tuberculin reaction (tuberculin reaction; 20 mg/kg): significant inhibition
- inhibition of contact sensitivity ([4]; 5 mg/kg): not
- inhibition of contact sensitivity ([4]; 20 mg/kg): significant inhibition
- suppression of IgE-mediated bronchoconstriction ([5]; intravenous dose of 1 mg/kg): significantly suppressed
- suppression of IgE-mediated bronchoconstriction ([5]; oral dose of 10 mg/kg): significantly suppressed
- inhibition of IgE-mediated constriction ([6]; 20 mg/kg, another study): significant inhibition
- ED50, inhibition of IgE-mediated constriction ([6]; one study): 14.5 mg/kg
- ED50, IgG1-mediated bronchoconstriction ([7]; intravenous): 8.2 mg/kg
- ED50, IgG1-mediated bronchoconstriction ([7]; oral): 160 mg/kg
- ED50, inhibition of bronchoconstriction (bronchoconstriction): 9 mg/kg
- suppression of bronchoconstriction induced by leukotriene D4 [8]: dose-related suppression
- suppression of bronchoconstriction induced by platelet activating factor [9]: dose-related suppression
- bronchoconstriction induced by histamine ([10]; Table 1): Has no effect on bronchoconstriction induced by histamine or
- effect on histamine-induced bronchoconstriction ([10]; text b108): slightly suppressed
- effect on acetylcholine-induced bronchoconstriction [11]: not active
- release of inflammatory mediators from mast cells (mast cells; antigen-antibody induced release, ionophore induced release): Potent inhibitor of the release of inflammatory mediators from mast cells
- immunologically-stimulated release of histamine from mast cells (mast cells; mechanism of action, in vivo and in vitro studies): Inhibition
- leukotriene D4 (LTD4) generation [12]: Inhibition
- contractile response of airway smooth muscle to LTD4 (airway smooth muscle): Antagonism
- anti-allergic activity (allergic reactions): Potent ant-allergic agent demonstrated in a variety of in vivo models
- formation of leukotrienes (leukotrienes): Inhibits formation of leukotrienes, in vitro
- generation of cyclo-oxygenase products (cyclo-oxygenase products): Does not inhibit generation of cyclo-oxygenase products in whole
- inhibition of cyclic nucleotide phosphodiesterase [13]: Potent inhibitor of cyclic nucleotide phosphodiesterase
- anti-inflammatory activity (inflammation): Weak anti-inflammatory activity in vivo

From patent US20020103219A1, “Stable viscous liquid formulations of amlexanox for the prevention and treatment of mucosal diseases and disorders” (priority 2000, published 2002)
